According to patent US10683287B2, “Heterocyclic derivatives and their use in the treatment of neurological disorders” (Novartis AG, priority 2011, dated 2020):
Structures can show the parent of a compound that is named as a salt.

system: Cellular Release of Amyloid Peptide 1-40; assay: Test 4: Inhibition of Cellular Release of Amyloid Peptide 1-40; type: cell-based, Chinese hamster; conditions: Cricetulus griseus, 24 h; read-out: Amyloid-β1-40 release IC50
Procedure: Chinese hamster ovary cells are transfected with the human gene for amyloid precursor protein. The cells are plated at a density of 8000 cells/well into 96-well microtiter plates and cultivated for 24 hours in DMEM cell culture medium containing 10% FCS. The test compound is added to the cells at various concentrations, and the cells are cultivated for 24 hours in the presence of the test compound.

| SMILES | IC50 [nM] |
| --- | --- |
| Cc1cnc(C(=O)Nc2ccc(F)c([C@]3(C)CO[C@@](C)(C(F)(F)F)C(N)=N3)n2)c(C)n1 [Example 41, 3,5-Dimethyl-pyrazine-2-carboxylic acid [6-((3R,6R)-5-amino-3,6-dimethyl-6-trifluoromethyl-3,6-dihydro-2H-[1,4]oxazin-3-yl)-5-fluoro-pyridin-2-yl]amide] | 161 |
| [2H]c1nc(C(=O)Nc2cccc([C@]3(C)CO[C@@](C)(C(F)(F)F)C(N)=N3)n2)c(C([2H])([2H])[2H])c([2H])c1Cl [Example 21, 5-Chloro-4,6-dideuterio-3-trideuteriomethyl-pyridine-2-carboxylic acid [6-((3R,6R)-5-amino-3,6-dimethyl-6-trifluoromethyl-3,6-dihydro-2H-[1,4]oxazin-3-yl)-pyridin-2-yl]-amide] | 110 |
| Cc1cc(C#N)cnc1C(=O)Nc1ccc(F)c([C@]2(C(F)F)COCC(N)=N2)n1 [Example 38, 5-Cyano-3-methyl-pyridine-2-carboxylic acid [6-((R)-5-amino-3-difluoromethyl-3,6-dihydro-2H-[1,4]oxazin-3-yl)-5-fluoro-pyridin-2-yl]-amide] | 5 |
| [2H]c1nc(C(=O)Nc2cccc(C3(CF)COCC(N)=N3)n2)c(C([2H])([2H])[2H])c([2H])c1Cl (stereo not drawn) [Example 6, 4,6-Dideutero-5-chloro-3-trideuteromethyl-pyridine-2-carboxylic acid [6-(5-amino-3-fluoromethyl-3,6-dihydro-2H-[1,4]oxazin-3-yl)-pyridin-2-yl]-amide] | 63 |
| C[C@@]1(c2cccc(NC(=O)c3ccc(Br)cn3)n2)COCC(N)=N1 [Example 1, 5-Bromo-pyridine-2-carboxylic acid [6-((R)-5-amino-3-methyl-3,6-dihydro-2H-[1,4]-oxazin-3-yl)-pyridin-2-yl]-amide] | 41 |
| Cc1cc(C#N)cnc1C(=O)Nc1cccc([C@]2(C)CO[C@@](C)(C(F)(F)F)C(N)=N2)n1 [Example 8, 5-Cyano-3-methyl-pyridine-2-carboxylic Acid [6-((3R,6R)-5-amino-3,6-dimethyl-6-trifluoro-methyl-3,6-dihydro-2H-[1,4]oxazin-3-yl)-pyridin-2-yl]-amide] | 6 |
| NC1=NC(CF)(c2cccc(NC(=O)c3ccc(Br)cn3)n2)COC1 (stereo not drawn) [Example 4, 5-Bromo-pyridine-2-carboxylic acid [6-(5-amino-3-fluoromethyl-3,6-dihydro-2H-[1,4]oxazin-3-yl)-pyridin-2-yl]-amide] | 98 |
| COc1cnc(C(=O)Nc2ccc(F)c([C@]3(C)CO[C@@](C)(C(F)(F)F)C(N)=N3)n2)c(C)c1 [Example 25, 5-Methoxy-3-methyl-pyridine-2-carboxylic acid [6-((3R,6R)-5-amino-3,6-dimethyl-6-trifluoromethyl-3,6-dihydro-2H-[1,4]oxazin-3-yl)-5-fluoro-pyridin-2-yl]amide] | 76 |
| Cc1cc(OCF)cnc1C(=O)Nc1ccc(F)c([C@]2(C)CO[C@@](C)(C(F)(F)F)C(N)=N2)n1 [Example 32, 5-Fluoromethoxy-3-methyl-pyridine-2-carboxylic acid [6-((3R,6R)-5-amino-3,6-dimethyl-6-trifluoromethyl-3,6-dihydro-2H-[1,4]oxazin-3-yl)-5-fluoro-pyridin-2-yl]amide] | 26 |
| C[C@]1(c2cccc(NC(=O)c3ccc(C#N)cn3)n2)CO[C@@](C)(C(F)(F)F)C(N)=N1 [Example 9, 5-Cyano-pyridine-2-carboxylic acid [6-((3S,6R)-5-amino-3,6-dimethyl-6-trifluoromethyl-3,6-dihydro-2H-[1,4]oxazin-3-yl)-pyridin-2-yl]-amide] | 1900 |
| C[C@@]1(c2nc(NC(=O)c3ncc(OCCCF)nc3N)ccc2F)CO[C@@](C)(C(F)(F)F)C(N)=N1 [Example 42, 3-Amino-5-(3-fluoro-propoxy)-pyrazine-2-carboxylic acid [6-((3R,6R)-5-amino-3,6-dimethyl-6-trifluoromethyl-3,6-dihydro-2H-[1,4]oxazin-3-yl)-5-fluoro-pyridin-2-yl]amide] | 72 |
| Cc1cc(C#N)cnc1C(=O)Nc1ccc(F)c([C@@]2(C(F)F)COCC(N)=N2)n1 [Example 39, 5-Cyano-3-methyl-pyridine-2-carboxylic acid [6-((S)-5-amino-3-difluoromethyl-3,6-dihydro-2H-[1,4]oxazin-3-yl)-5-fluoro-pyridin-2-yl]-amide] | 290 |
| Cc1cc(C#N)cnc1C(=O)Nc1cccc(C2(CF)COCC(N)=N2)n1 (stereo not drawn) [Example 5, 5-Cyano-3-methyl-pyridine-2-carboxylic acid [6-(5-amino-3-fluoromethyl-3,6-dihydro-2H-[1,4]oxazin-3-yl)-pyridin-2-yl]-amide] | 40 |
| N#Cc1cnc(C(=O)Nc2ccc(F)c([C@]3(C(F)F)COCC(N)=N3)n2)c(Cl)c1 [Example 40, 3-Chloro-5-cyano-pyridine-2-carboxylic acid [6-((R)-5-amino-3-difluoromethyl-3,6-dihydro-2H-[1,4]oxazin-3-yl)-5-fluoro-pyridin-2-yl]-amide] | 12 |
| [2H]c1nc(C(=O)Nc2cc(C3(CF)COCC(N)=N3)ccn2)c(C([2H])([2H])[2H])c([2H])c1Cl (stereo not drawn) [Example 13, 5-{2-[(5-Chloro-4,6-dideuterio-3-trideuteromethyl-pyridine-2-carbonyl)-amino]-pyridin-4-yl}-5-fluoromethyl-5,6-dihydro-2H-[1,4]oxazin-3-yl-ammonium Acetate] | 550 |
| NC1=NC(CF)(c2cccc(NC(=O)c3ccc(Cl)cn3)n2)COC1 (stereo not drawn) [Example 3, 5-{6-[(5-Chloro-pyridine-2-carbonyl)-amino]-pyridin-2-yl}-5-fluoromethyl-5,6-dihydro-2H-[1,4]oxazin-3-yl-ammonium Trifluoro Acetate] | 140 |
| Cc1cc(C#N)cnc1C(=O)Nc1cc([C@]2(C)COC(CF)(CF)C(N)=N2)c(F)cn1 [Example 37, 5-Cyano-3-methyl-pyridine-2-carboxylic acid [4-((R)-5-amino-6,6-bis-fluoromethyl-3-methyl-3,6-dihydro-2H-[1,4]oxazin-3-yl)-5-fluoro-pyridin-2-yl]-amide] | 83 |
| NC1=NC(CF)(c2cc(NC(=O)c3ccc(Br)cn3)cnc2Cl)COC1 (stereo not drawn) [Example 18, 5-Bromo-pyridine-2-carboxylic acid [5-(5-amino-3-fluoromethyl-3,6-dihydro-2H-[1,4]oxazin-3-yl)-6-chloro-pyridin-3-yl]-amide hydrochloride] | 15 |

Now from value to compound:

| IC50 [nM] | SMILES |
| --- | --- |
| 29 | C[C@@]1(c2cccc(NC(=O)c3ncc(Br)cc3Cl)n2)CO[C@@](C)(C(F)(F)F)C(N)=N1 [Example 22, 5-Bromo-3-chloro-pyridine-2-carboxylic acid [6-((3R,6R)-5-amino-3,6-dimethyl-6-trifluoromethyl-3,6-dihydro-2H-[1,4]oxazin-3-yl)-pyridin-2-yl]-amide] |
| 130 | Cc1cnc(C(=O)Nc2ccc(F)c([C@]3(C)CO[C@@](C)(C(F)(F)F)C(N)=N3)n2)cn1 [Example 33, 5-Methyl-pyrazine-2-carboxylic acid [6-((3R,6R)-5-amino-3,6-dimethyl-6-trifluoromethyl-3,6-dihydro-2H-[1,4]oxazin-3-yl)-5-fluoro-pyridin-2-yl]amide] |
| 4800 | Cc1cc(C#N)cnc1C(=O)Nc1cc([C@@]2(C)CO[C@@](C)(C(F)(F)F)C(N)=N2)c(F)cn1 [Example 17, 5-Cyano-3-methyl-pyridine-2-carboxylic acid [4-((3S,6R)-5-amino-3,6-dimethyl-6-trifluoromethyl-3,6-dihydro-2H-[1,4]oxazin-3-yl)-5-fluoro-pyridin-2-yl]-amide] |
| 5 | C[C@@]1(c2cccc(NC(=O)c3ncc(C#N)cc3Cl)n2)CO[C@@](C)(C(F)(F)F)C(N)=N1 [Example 20, 3-Chloro-5-cyano-pyridine-2-carboxylic acid [6-((3R,6R)-5-amino-3,6-dimethyl-6-trifluoromethyl-3,6-dihydro-2H-[1,4]oxazin-3-yl)-pyridin-2-yl]-amide] |
| 370 | COCCn1ccc2nc(C(=O)Nc3ccc(F)c([C@]4(C)CO[C@@](C)(C(F)(F)F)C(N)=N4)n3)c(N)nc21 [Example 43, 3-Amino-5-(2-methoxy-ethyl)-5H-pyrrolo[2,3-b]pyrazine-2-carboxylic acid [6-((3R,6R)-5-amino-3,6-dimethyl-6-trifluoromethyl-3,6-dihydro-2H-[1,4]oxazin-3-yl)-5-fluoro-pyridin-2-yl]amide] |
| 140 | C[C@@]1(c2cc(NC(=O)c3ncc(C#N)cc3Cl)ncc2F)CO[C@@](C)(C(F)(F)F)C(N)=N1 [Example 35, 3-Chloro-5-cyano-pyridine-2-carboxylic acid [4-((3R,6R)-5-amino-3,6-dimethyl-6-trifluoromethyl-3,6-dihydro-2H-[1,4]oxazin-3-yl)-5-fluoro-pyridin-2-yl]-amide] |
| 2 | Cc1cc(C#N)cnc1C(=O)Nc1ccc(F)c([C@]2(C)CO[C@@](C)(C(F)(F)F)C(N)=N2)n1 [Example 11, 5-Cyano-3-methyl-pyridine-2-carboxylic Acid [6-((3R,6R)-5-amino-3,6-dimethyl-6-trifluoromethyl-3,6-dihydro-2H-[1,4]oxazin-3-yl)-5-fluoro-pyridin-2-yl]-amide] |
| 280 | Cc1cc(C#N)cnc1C(=O)Nc1ccc(F)c([C@@]2(C)CO[C@@](C)(C(F)(F)F)C(N)=N2)n1 [Example 12, 5-Cyano-3-methyl-pyridine-2-carboxylic Acid [6-((3S,6R)-5-amino-3,6-dimethyl-6-trifluoromethyl-3,6-dihydro-2H-[1,4]oxazin-3-yl)-5-fluoro-pyridin-2-yl]-amide] |
| 17 | C[C@@]1(c2cccc(NC(=O)c3ccc(C#N)cn3)n2)CO[C@@](C)(C(F)(F)F)C(N)=N1 [Example 10, 5-Cyano-pyridine-2-carboxylic acid [6-((3R,6R)-5-amino-3,6-dimethyl-6-trifluoromethyl-3,6-dihydro-2H-[1,4]oxazin-3-yl)-pyridin-2-yl]-amide] |
